Results as given in US20240190851A1, “FURAN FUSED RING-SUBSTITUTED GLUTARIMIDE COMPOUND” (MEDSHINE DISCOVERY INC., priority 2021, published 2024).
Structures can show the parent of a compound that is named as a salt.

Target: T1, androgen receptor AR (Homo sapiens, UniProt P10275, T878A)
T1 construct: degradation effect of compounds on androgen receptor AR in LNCaP cells; endogenous in cells; host or cells: LNCaP
T1 sequence (P10275 1-920 T878A): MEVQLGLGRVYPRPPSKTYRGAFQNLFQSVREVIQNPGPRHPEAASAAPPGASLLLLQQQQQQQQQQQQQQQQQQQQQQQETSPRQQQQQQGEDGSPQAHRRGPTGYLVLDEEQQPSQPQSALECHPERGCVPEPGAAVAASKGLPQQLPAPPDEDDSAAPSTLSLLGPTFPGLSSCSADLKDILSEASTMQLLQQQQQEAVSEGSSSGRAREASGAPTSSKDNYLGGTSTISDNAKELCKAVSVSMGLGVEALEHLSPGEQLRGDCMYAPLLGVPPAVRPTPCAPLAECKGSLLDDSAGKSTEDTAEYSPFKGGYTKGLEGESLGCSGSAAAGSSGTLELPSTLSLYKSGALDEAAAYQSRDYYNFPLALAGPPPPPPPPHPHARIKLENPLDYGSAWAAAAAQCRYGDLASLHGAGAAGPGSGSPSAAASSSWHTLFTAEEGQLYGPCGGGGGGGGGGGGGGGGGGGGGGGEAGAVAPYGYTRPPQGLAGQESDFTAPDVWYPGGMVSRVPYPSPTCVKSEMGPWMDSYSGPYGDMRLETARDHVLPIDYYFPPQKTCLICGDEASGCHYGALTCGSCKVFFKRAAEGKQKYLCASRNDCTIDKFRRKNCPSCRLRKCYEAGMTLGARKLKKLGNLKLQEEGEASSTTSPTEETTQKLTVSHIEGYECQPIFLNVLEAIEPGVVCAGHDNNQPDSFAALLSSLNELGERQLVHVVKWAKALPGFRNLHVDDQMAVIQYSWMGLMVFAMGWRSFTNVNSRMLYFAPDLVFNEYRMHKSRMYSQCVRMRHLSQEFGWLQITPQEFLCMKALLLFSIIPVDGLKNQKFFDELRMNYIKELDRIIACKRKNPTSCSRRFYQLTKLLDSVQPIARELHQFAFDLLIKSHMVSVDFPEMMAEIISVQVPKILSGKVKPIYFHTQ
Test: AR degradation in LNCaP cells by ICW method
Type: cell-based
Conditions: 24 hours
Description: Experimental purpose: To test the degradation effect of compounds on androgen receptor AR in LNCaP cells by ICW method.
Day 1 • 1. The cell culture medium, 0.025% trypsin, and phosphate buffered saline were preheated in a 37° C. water bath. • 2. Cells digested by trypsin were centrifuged at 1000 rpm for 5 minutes. The supernatant was discarded, and then the cells were resuspended in fresh culture medium. • 3. The cells were inoculated in a COL-Coated CellCarrier-384 plate at a density of 4 k/[…]/well. • 4. The 384 cell plate inoculated with cells was placed in an ultra-clean bench for 10 minutes. • 5. The cell plate was cultured overnight in a CO2 cell incubator.
Day 2 • 1. The compound at a concentration of 10 mM was diluted to 3 mM (3 μL+7 μL of dimethyl sulfoxide) before serial dilution. • 2. The compound was serially diluted 3-fold (4 μL+8 μL) in an Echo plate using Bravo. • 3. ZPE and HPE control wells were setup, and the ZPE control wells were dimethyl sulfoxide. • 4. The Echo plate was centrifuged at 1000 rpm for 1 minute, and then the diluted compound was transferred from the Echo plate to an intermediate plate using Echo with 200 nL/well. • 5. To the intermediate plate was added the cell culture medium using Multidrop combi with […]. • 6. The intermediate plate was shaken on a horizontal shaker for 1 minute to mix the compound well with the culture medium. • 7. The compound was transferred from the intermediate dilution plate to the cell plate using Bravo with 4 μL/well. • 8. The cell plate was shaken on the horizontal shaker for 1 minute, and centrifuged at 800 rpm for 30 seconds. • 9. The cell plate was returned to the CO2 incubator, and cultured for another 24 hours.
Day 3 • 1. 4% paraformaldehyde was removed from the refrigerator and brought to room temperature. • 2. The cell plate was removed from the incubator. • 3. To the cell plate was directly added 4% paraformaldehyde with 40 μL/well. • 4. The plate was incubated at room temperature for 20 minutes. • 5. The culture medium was manually shaken off from the cell plate, inverted in a centrifuge, and centrifuged at 800 rpm for 7 seconds to fully remove the residual culture medium. • 6. To the cell plate was added 4% paraformaldehyde with 25 μL/well. • 7. The plate was incubated at room temperature for 30 minutes. • 8. The paraformaldehyde solution was manually shaken off from the cell plate, inverted in the centrifuge, and centrifuged at 800 rpm for 7 seconds. • 9. 0.1% Trition was added with 25 μL/well. • 10. The plate was incubated at room temperature for 10 minutes. • 11. The 0.1% Trition solution was manually shaken off from the cell plate, inverted in the centrifuge, and centrifuged at 800 rpm for 7 seconds. • 12. Intercept® (PBS) blocking buffer was added with 25 μL/well. • 13. The plate was incubated at room temperature for 1 hour. • 14. The Intercept® (PBS) blocking buffer solution was manually shaken off from the cell plate, inverted in the centrifuge, and centrifuged at 800 rpm for 7 seconds. • 15. Primary antibody solution was added with 20 μL/well. The cell plate was placed in the centrifuge, and centrifuged at 800 rpm for 7 seconds. • 16. The cell plate was sealed, and then incubated overnight at 4° C.
Day 4 • 1. The primary antibody solution was manually shaken off from the cell plate, inverted in the centrifuge, and centrifuged at 800 rpm for 7 seconds. • 2. The plate was washed three times with 110 μL of PBS. • 3. The cell plate was inverted in the centrifuge, and centrifuged at 800 rpm for 7 seconds. • 4. Secondary antibody and DAPI solution was added with 20 μL/well. The cell plate was placed in the centrifuge, and centrifuged at 800 rpm for 7 seconds. • 5. The plate was incubated at room temperature for 1 hour. • 6. The secondary antibody and DAPI solution was manually shaken off from the cell plate, inverted in the centrifuge, and centrifuged at 800 rpm for 7 seconds. • 7. […]

N#Cc1ccc(O[C@H]2CC[C@H](NC(=O)c3ccc(N4CCC(CN5CCN(c6cccc7c6ccc6occ(C8CCC(=O)NC8=O)c67)CC5)CC4)nn3)CC2)cc1Cl (stereo partly shown) [Hydrochloride of WX015]
DC50: 13.7 nM
Dmax: 102%

CC1(C)C(=O)N(c2ccc(C#N)c(C(F)(F)F)c2)C(=S)N1c1ccc(OCCN2CCN(CC(=O)Nc3ccc4c(C5CCC(=O)NC5=O)coc4c3)CC2)c(F)c1 (stereo not shown) [WX002]
DC50: 8.9 nM
Dmax: 72%
